Molecules are shown by their SMILES.

We go through four molecules from paper PMC6510361 (Medicine and Pharmacy Reports, 2019).

The conditions of data set [1]: cited from earlier work.
The test system of the next data set is CYP2D6. The note with it: sertraline, fluvoxamine: ref 17; bupropion in vitro ref 12, in vivo ref 13; cited from earlier work.
In data set [2] the test system is rat pooled liver microsomes.
Another data set relates to CYP1A2. The note with it: cited from earlier work.
A further data set concerns CYP2C9. The note with it: cited from earlier work.

With `COc1cc(O)ccc1OCCNCC(O)COc1cccc2[nH]c3ccccc3c12` (centres unmarked) [4′-hydroxyphenyl carvedilol], the “beta-blocking potency relative to carvedilol” value in data set [1] is recorded as “approximately 13 times”.

On to `CC(NC(C)(C)C)C(=O)c1cccc(Cl)c1` (centres unmarked) [Bupropion, bupropion], for which the CYP2D6 inhibition result in the data set on CYP2D6 is reported as “inhibits”.

In the case of `COCCCC/C(=N\OCCN)c1ccc(C(F)(F)F)cc1` [Fluvoxamine, fluvoxamine], the “decrease of carvedilol metabolisation rate” value in data set [2] worked out at 25.19%. Further, in data set [2] (based on metabolization rate and AUC0–30, citalopram data ref 20), the “inhibitory potency compared with citalopram” value is “stronger inhibitors than citalopram”. Further, in the data set with CYP2D6, the CYP2D6 inhibition entry is reported as “weak inhibitor”. The CYP1A2 inhibition entry with CYP1A2 is “strong inhibitor”. The CYP2C9 inhibition result in the data set with CYP2C9 is “moderate inhibitor”.

As for `CN[C@H]1CC[C@@H](c2ccc(Cl)c(Cl)c2)c2ccccc21` [Sertraline, sertraline], the “decrease of carvedilol metabolisation rate” value in data set [2] is 63.63%. For the same molecule, the CYP2D6 inhibition entry in the data set on CYP2D6 was “moderate inhibitor”. The CYP1A2 inhibition result in the data set on CYP1A2 is given as “weak inhibitor”. The CYP2C9 inhibition result in the data set on CYP2C9 is “weak inhibitor”.
